Test results published in paper PMC9653409, “Generative deep learning enables the discovery of a potent and selective RIPK1 inhibitor” (Nature Communications, 2022).

Tests used:
Assay in all cases: Kinase inhibitory activity profiling of RI-962@10 µM (406 kinases, Eurofins)
Format in all cases: biochemical
[1] = target: panel of human kinases (kinase named in endpoint) (Homo sapiens, UniProt Q06187, R28H); details: 10 µM; read-out: Activity (%), BTK(R28H)(h)
Procedure, shortened: (§1)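 Radiometric filter-binding kinase assays: enzyme preincubated 15 min with compound in 8 mM MOPS pH 7.0, 0.2 mM EDTA, 250 μM peptide substrate, 10 mM magnesium acetate, 10 μM [γ-33P]-ATP. Reaction started with Mg/ATP, run 40 min at room temperature, stopped with phosphoric acid; 33P incorporation read by scintillation counting. Other kinases by similar protocols.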

[2] = target: panel of human kinases (kinase named in endpoint) (Homo sapiens, UniProt Q13153); details: 10 µM; read-out: Activity (%), PAK1(h)
Procedure, shortened: as §1

[3] = target: panel of human kinases (kinase named in endpoint) (Homo sapiens, UniProt P25098); details: 10 µM; read-out: Activity (%), GRK2(h)
Procedure, shortened: as §1

[4] = target: panel of human kinases (kinase named in endpoint) (Homo sapiens, UniProt Q13523); details: 10 µM; read-out: Activity (%), PRP4(h)
Procedure, shortened: as §1

[5] = target: panel of human kinases (kinase named in endpoint) (Homo sapiens, UniProt Q14004); details: read-out: Activity (%), CDK13/cyclinK(h)
Procedure, shortened: as §1

[6] = target: panel of human kinases (kinase named in endpoint) (Homo sapiens, UniProt Q9BQI3); details: 10 µM; read-out: Activity (%), HRI(h)
Procedure, shortened: as §1

[7] = target: panel of human kinases (kinase named in endpoint) (Homo sapiens, UniProt Q9UBE8); details: 10 µM; read-out: Activity (%), NLK(h)
Procedure, shortened: as §1

[8] = target: panel of human kinases (kinase named in endpoint) (Homo sapiens, UniProt P08581, Y1230H); details: 10 µM; read-out: Activity (%), Met(Y1248H)(h)
Procedure, shortened: as §1

[9] = target: panel of human kinases (kinase named in endpoint) (Homo sapiens, UniProt Q8NG66); details: 10 µM; read-out: Activity (%), NEK11(h)
Procedure, shortened: as §1

[10] = target: panel of human kinases (kinase named in endpoint) (Homo sapiens, UniProt O94768); details: 10 µM; read-out: Activity (%), DRAK2(h)
Procedure, shortened: as §1

[11] = target: panel of human kinases (kinase named in endpoint) (Homo sapiens, UniProt P16234); details: 10 µM; read-out: Activity (%), PDGFRα(h)
Procedure, shortened: as §1

[12] = target: panel of human kinases (kinase named in endpoint) (Homo sapiens, UniProt Q13557); details: 10 µM; read-out: Activity (%), CaMKIIδ(h)
Procedure, shortened: as §1

[13] = target: panel of human kinases (kinase named in endpoint) (Homo sapiens, UniProt Q12866); details: 10 µM; read-out: Activity (%), Mer(h)
Procedure, shortened: as §1

[14] = target: panel of human kinases (kinase named in endpoint) (Homo sapiens, UniProt Q9UQB9); details: 10 µM; read-out: Activity (%), Aurora-C(h)
Procedure, shortened: as §1

[15] = target: panel of human kinases (kinase named in endpoint) (Homo sapiens, UniProt Q9NQU5); details: 10 µM; read-out: Activity (%), PAK6(h)
Procedure, shortened: as §1

[16] = target: panel of human kinases (kinase named in endpoint) (Homo sapiens, UniProt O60674); details: 10 µM; read-out: Activity (%), JAK2(h)
Procedure, shortened: as §1

[17] = target: panel of human kinases (kinase named in endpoint) (Homo sapiens, UniProt Q86UX6); details: 10 µM; read-out: Activity (%), STK32C(h)
Procedure, shortened: as §1

[18] = target: panel of human kinases (kinase named in endpoint) (Homo sapiens, UniProt Q00537); details: 10 µM; read-out: Activity (%), CDK17/cyclinY(h)
Procedure, shortened: as §1

[19] = target: panel of human kinases (kinase named in endpoint) (Homo sapiens, UniProt Q9HAZ1); details: 10 µM; read-out: Activity (%), CLK4(h)
Procedure, shortened: as §1

[20] = target: panel of human kinases (kinase named in endpoint) (Homo sapiens, UniProt P22455); details: 10 µM; read-out: Activity (%), FGFR4(h)
Procedure, shortened: as §1

[21] = target: panel of human kinases (kinase named in endpoint) (Homo sapiens, UniProt P08581, D1228N); details: 10 µM; read-out: Activity (%), Met(D1246N)(h)
Procedure, shortened: as §1

[22] = target: panel of human kinases (kinase named in endpoint) (Homo sapiens, UniProt Q9UHD2); details: 10 µM; read-out: Activity (%), TBK1(h)
Procedure, shortened: as §1

[23] = target: panel of human kinases (kinase named in endpoint) (Homo sapiens, UniProt Q9Y5S2); details: 10 µM; read-out: Activity (%), MRCKβ(h)
Procedure, shortened: as §1

[24] = target: panel of human kinases (kinase named in endpoint) (Homo sapiens, UniProt Q9NSY1); details: 10 µM; read-out: Activity (%), BIKe(h)
Procedure, shortened: as §1

[25] = target: panel of human kinases (kinase named in endpoint) (Homo sapiens, UniProt P14616); details: 10 µM; read-out: Activity (%), IRR(h)
Procedure, shortened: as §1

[26] = target: panel of human kinases (kinase named in endpoint) (Homo sapiens, UniProt P48426); details: 10 µM; read-out: Activity (%), PIP4K2a(h)
Procedure, shortened: as §1

Sequence of panel of human kinases (kinase named in endpoint) (Homo sapiens, UniProt Q86UX6) (Q86UX6 whole entry): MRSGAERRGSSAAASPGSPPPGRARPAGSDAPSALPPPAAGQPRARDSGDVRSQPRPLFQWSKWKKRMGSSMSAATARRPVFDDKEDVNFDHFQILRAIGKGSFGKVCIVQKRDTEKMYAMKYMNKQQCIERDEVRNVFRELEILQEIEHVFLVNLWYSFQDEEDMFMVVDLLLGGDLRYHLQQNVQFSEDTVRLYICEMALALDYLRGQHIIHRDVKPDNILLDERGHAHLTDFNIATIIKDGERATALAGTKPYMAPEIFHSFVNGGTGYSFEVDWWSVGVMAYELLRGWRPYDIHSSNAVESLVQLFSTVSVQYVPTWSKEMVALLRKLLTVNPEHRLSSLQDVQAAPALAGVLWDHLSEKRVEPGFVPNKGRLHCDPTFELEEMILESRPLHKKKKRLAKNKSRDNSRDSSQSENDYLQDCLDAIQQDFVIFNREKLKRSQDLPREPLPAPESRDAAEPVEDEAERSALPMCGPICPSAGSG
Sequence of panel of human kinases (kinase named in endpoint) (Homo sapiens, UniProt Q12866) (Q12866 21-999): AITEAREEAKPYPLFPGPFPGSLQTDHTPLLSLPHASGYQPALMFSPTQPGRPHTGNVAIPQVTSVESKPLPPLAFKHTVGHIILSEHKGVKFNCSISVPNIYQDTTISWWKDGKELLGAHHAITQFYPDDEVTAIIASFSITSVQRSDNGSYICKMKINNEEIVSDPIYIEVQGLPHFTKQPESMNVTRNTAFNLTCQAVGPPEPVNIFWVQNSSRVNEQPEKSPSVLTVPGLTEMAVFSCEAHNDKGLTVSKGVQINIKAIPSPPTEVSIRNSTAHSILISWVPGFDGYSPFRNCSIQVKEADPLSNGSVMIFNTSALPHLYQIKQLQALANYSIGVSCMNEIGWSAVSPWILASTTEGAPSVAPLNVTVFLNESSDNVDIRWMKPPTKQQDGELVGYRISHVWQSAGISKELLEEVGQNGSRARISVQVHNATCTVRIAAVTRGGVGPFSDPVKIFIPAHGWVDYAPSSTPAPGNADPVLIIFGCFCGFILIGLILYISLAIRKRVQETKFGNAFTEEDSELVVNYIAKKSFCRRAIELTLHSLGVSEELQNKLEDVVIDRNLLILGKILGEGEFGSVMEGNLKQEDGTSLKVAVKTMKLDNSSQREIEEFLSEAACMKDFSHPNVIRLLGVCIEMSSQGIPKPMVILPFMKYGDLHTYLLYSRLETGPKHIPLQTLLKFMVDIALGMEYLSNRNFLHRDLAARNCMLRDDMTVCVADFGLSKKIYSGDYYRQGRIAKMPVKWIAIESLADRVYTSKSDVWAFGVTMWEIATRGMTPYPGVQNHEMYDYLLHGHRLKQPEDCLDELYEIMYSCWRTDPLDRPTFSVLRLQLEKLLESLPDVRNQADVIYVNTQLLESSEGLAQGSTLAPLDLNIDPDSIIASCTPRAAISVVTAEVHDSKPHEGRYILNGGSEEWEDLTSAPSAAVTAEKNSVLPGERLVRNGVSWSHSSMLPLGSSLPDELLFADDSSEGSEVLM
Sequence of panel of human kinases (kinase named in endpoint) (Homo sapiens, UniProt Q00537) (Q00537 whole entry): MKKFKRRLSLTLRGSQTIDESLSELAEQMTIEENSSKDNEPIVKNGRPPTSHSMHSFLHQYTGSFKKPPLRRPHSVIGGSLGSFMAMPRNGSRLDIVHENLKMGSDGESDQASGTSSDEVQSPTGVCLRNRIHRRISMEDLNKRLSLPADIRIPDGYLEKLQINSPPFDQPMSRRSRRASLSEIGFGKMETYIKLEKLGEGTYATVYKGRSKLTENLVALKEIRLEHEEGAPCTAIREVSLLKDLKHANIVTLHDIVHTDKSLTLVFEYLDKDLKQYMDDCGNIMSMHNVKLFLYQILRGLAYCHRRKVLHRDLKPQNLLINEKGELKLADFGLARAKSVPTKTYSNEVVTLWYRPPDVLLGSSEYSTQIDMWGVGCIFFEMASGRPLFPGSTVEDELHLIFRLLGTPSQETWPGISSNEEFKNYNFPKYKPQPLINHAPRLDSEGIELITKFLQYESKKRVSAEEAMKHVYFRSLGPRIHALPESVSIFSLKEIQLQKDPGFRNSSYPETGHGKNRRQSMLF
Sequence of panel of human kinases (kinase named in endpoint) (Homo sapiens, UniProt Q9HAZ1) (Q9HAZ1 whole entry): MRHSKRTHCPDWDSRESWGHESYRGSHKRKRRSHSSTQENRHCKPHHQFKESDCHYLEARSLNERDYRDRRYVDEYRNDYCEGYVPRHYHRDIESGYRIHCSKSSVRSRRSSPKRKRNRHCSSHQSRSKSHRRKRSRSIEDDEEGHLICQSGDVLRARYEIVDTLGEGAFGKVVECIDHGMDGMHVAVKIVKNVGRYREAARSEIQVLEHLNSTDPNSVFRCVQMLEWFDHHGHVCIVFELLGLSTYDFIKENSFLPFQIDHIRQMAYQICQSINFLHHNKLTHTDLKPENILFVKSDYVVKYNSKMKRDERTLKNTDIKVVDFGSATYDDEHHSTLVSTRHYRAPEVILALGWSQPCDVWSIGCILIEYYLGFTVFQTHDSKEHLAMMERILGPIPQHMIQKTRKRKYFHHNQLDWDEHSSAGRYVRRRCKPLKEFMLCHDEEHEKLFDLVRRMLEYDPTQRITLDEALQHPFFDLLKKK
Sequence of panel of human kinases (kinase named in endpoint) (Homo sapiens, UniProt P25098) (P25098 whole entry): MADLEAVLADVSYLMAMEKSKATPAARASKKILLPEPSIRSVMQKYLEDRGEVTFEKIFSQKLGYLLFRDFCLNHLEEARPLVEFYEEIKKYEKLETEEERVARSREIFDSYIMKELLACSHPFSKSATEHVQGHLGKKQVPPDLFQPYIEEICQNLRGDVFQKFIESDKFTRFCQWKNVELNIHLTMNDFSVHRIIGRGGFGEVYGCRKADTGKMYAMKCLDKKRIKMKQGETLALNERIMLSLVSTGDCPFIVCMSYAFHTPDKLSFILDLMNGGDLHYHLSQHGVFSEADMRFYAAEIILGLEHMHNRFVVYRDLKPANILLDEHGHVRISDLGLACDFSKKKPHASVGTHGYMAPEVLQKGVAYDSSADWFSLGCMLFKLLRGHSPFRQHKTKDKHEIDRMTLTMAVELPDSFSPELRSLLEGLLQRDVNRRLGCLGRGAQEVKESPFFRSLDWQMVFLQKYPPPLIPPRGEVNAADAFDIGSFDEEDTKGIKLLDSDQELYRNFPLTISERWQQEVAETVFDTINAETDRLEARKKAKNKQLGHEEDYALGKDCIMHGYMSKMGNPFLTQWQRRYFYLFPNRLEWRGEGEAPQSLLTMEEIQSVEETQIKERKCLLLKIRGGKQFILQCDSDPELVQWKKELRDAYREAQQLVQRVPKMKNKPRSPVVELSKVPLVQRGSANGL
Sequence of panel of human kinases (kinase named in endpoint) (Homo sapiens, UniProt Q13153) (Q13153 whole entry): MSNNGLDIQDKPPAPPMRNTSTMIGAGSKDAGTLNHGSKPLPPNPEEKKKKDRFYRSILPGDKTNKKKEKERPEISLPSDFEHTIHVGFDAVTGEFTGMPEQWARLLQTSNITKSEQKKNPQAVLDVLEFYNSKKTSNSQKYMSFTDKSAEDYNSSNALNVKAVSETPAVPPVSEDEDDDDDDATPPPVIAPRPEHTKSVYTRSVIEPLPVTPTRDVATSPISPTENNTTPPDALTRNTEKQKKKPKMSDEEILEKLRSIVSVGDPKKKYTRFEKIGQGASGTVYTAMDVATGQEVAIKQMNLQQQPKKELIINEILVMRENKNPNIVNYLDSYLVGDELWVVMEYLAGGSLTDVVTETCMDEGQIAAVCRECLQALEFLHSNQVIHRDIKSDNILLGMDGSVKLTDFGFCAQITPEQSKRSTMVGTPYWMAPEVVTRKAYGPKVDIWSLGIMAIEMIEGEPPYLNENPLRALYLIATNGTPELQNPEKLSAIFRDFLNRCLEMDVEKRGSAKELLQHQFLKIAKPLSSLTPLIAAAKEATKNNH
Sequence of panel of human kinases (kinase named in endpoint) (Homo sapiens, UniProt Q9UBE8) (Q9UBE8 whole entry): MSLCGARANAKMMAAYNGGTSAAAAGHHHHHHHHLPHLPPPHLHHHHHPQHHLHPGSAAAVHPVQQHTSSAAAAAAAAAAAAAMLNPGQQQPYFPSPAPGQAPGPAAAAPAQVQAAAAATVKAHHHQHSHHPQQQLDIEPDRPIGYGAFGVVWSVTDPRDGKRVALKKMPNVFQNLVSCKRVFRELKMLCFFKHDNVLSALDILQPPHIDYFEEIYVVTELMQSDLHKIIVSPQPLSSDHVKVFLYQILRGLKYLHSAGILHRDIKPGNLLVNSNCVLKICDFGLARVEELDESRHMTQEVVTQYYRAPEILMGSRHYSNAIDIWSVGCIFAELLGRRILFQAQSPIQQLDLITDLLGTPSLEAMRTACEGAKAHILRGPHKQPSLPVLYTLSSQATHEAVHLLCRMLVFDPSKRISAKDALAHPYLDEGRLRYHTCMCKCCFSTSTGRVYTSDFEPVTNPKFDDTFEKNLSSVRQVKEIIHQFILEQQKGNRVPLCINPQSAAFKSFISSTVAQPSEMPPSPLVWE
Sequence of panel of human kinases (kinase named in endpoint) (Homo sapiens, UniProt Q9UQB9) (Q9UQB9 whole entry): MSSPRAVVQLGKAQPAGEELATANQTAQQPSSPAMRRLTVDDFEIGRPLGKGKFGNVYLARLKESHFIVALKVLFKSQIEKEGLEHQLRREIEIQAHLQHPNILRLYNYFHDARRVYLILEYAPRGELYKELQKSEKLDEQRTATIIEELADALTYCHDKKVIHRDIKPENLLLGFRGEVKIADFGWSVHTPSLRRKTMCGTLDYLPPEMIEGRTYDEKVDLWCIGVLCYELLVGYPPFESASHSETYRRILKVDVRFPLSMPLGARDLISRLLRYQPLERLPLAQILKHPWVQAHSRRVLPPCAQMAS
Sequence of panel of human kinases (kinase named in endpoint) (Homo sapiens, UniProt O94768) (O94768 whole entry): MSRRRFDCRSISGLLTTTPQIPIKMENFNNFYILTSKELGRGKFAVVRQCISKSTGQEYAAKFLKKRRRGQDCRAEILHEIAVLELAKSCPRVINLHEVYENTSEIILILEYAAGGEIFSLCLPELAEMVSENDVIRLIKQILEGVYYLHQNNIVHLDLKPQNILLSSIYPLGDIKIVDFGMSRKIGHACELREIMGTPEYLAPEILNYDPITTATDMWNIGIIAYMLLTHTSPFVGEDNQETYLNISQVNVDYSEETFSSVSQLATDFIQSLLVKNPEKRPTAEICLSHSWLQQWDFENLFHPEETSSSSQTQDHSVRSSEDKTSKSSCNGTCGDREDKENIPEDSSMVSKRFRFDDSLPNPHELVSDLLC

In the case of CC(C)C(=O)Nc1nc2cc(-c3ccc4c(c3)c(C(=O)NC(C)c3ccccc3)cn4C)ccn2n1 (centres unmarked) [RI-962], the activity at 10 µM [1] is reported as 105%, the activity at 10 µM [2] is reported as 105% and the activity at 10 µM [3] is reported as 86%. The activity at 10 µM [4] was 88%, the activity at 10 µM [5] was 100% and the activity at 10 µM [6] was 99%. It also gave an activity at 10 µM [7] of 93%, an activity at 10 µM [8] of 99% and an activity at 10 µM [9] of 89%. The activity at 10 µM [10] was 106%, the activity at 10 µM [11] was 99% and the activity at 10 µM [12] was 92%. It also gave an activity at 10 µM [13] of 91%, an activity at 10 µM [14] of 95% and an activity at 10 µM [15] of 87%. The activity at 10 µM [16] was 107%, the activity at 10 µM [17] was 76% and the activity at 10 µM [18] was 124%. For the same molecule, the activity at 10 µM [19] was 103%, the activity at 10 µM [20] was 85% and the activity at 10 µM [21] was 125%. The activity at 10 µM [22] was 90%, the activity at 10 µM [23] was 79% and the activity at 10 µM [24] was 60%. It also gave an activity at 10 µM [25] of 100% and an activity at 10 µM [26] of 98%.
